Source: US20160075653A1, “NEMATICIDAL N-(PHENYLCYCLOALKYL)CARBOXAMIDES AND N-(PHENYLCYCLOALKYL)THIOCARBOXAMIDES” (BAYER CROPSCIENCE AKTIENGESELLSCHAFT, priority 2013, published 2016)

Test: Measurement of log P values by HPLC on reversed phase columns (methods [a] pH 2.3, [b] pH 2.7, [c] pH 7.8)
Type: physicochemical
Settings: HPLC reversed phase, method [b] (pH 2.7)
Summary of the method: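 Determined per EEC Directive 79/831 Annex V.A8 by reversed-phase HPLC, 10-95% acetonitrile gradient: [a] pH 2.3, 0.1% phosphoric acid; [b] LC-MS, pH 2.7, 0.1% formic acid; [c] LC-MS, pH 7.8, 0.001 molar ammonium hydrogen carbonate. Calibrated with C3-C16 alkan-2-ones by retention-time interpolation.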
In the case of `O=C(NC1CCCC1c1ccccc1C(F)(F)F)c1cccnc1C(F)(F)F` (stereo not drawn) [Example 309], the logP is reported as 3.22^[b]. With `Cc1nn(C)cc1C(=O)NC1CCCC1c1ccccc1C(F)(F)F` (stereo not drawn) [Example 310] the logP was 2.47^[b]. In the case of `Cc1nc(C)c(C(=O)NC2CCCC2c2c(F)cccc2F)s1` (stereo not drawn) [Example 312], the logP is reported as 2.65^[b]. In the case of `O=C(NC1CCCC1c1c(F)cccc1F)c1c(F)cccc1F` (stereo not drawn) [Example 314], the logP is reported as 3.05^[b]. In the case of `O=C(NC1CCCC1c1ccccc1C(F)(F)F)c1c(F)cccc1F` (stereo not drawn) [Example 320], the logP is reported as 3.38^[b]. For `O=C(NC1CCCC1c1c(F)cccc1F)c1cccnc1Cl` (stereo not drawn) [Example 321], the logP was 2.51^[b]. For `Cc1nn(C)cc1C(=O)NC1CCCC1c1c(F)cccc1F` (stereo not drawn) [Example 324], the logP was 2.13^[b]. With `Cc1nc(C)c(C(=O)NC2CCCC2c2ccccc2Br)s1` (stereo not drawn) [Example 344] the logP was 2.86^[b]. In the case of `Cc1nn(C)cc1C(=O)NC1CCCC1c1ccccc1Br` (stereo not drawn) [Example 345], the logP is reported as 3.69^[b]. In the case of `O=C(NC1CCCC1c1ccccc1Br)c1c(F)cccc1F` (stereo not drawn) [Example 347], the logP is reported as 3.35^[b]. For `O=C(NC1CCCC1c1ccc(Cl)cc1Cl)c1c(F)cccc1F` (stereo not drawn) [Example 350], the logP was 3.73^[b]. With `O=C(NC1CCCC1c1ccc(Cl)cc1Cl)c1ccccc1Cl` (stereo not drawn) [Example 351] the logP was 3.87^[b]. With `Cc1nc(C)c(C(=O)NC2CCCC2c2ccc(Cl)cc2Cl)s1` (stereo not drawn) [Example 354] the logP was 3.24^[b]. In the case of `O=C(NC1CCCC1c1ccccc1Br)c1ccccc1C(F)(F)F` (stereo not drawn) [Example 355], the logP is reported as 3.71^[b]. With `O=C(NC1CCCC1c1ccc(Cl)cc1Cl)c1cccnc1Cl` (stereo not drawn) [Example 356] the logP was 3.20^[b]. For `O=C(NC1CCCC1c1ccccc1Br)c1ccccc1I` (stereo not drawn) [Example 357], the logP was 3.67^[b]. With `Cc1nn(C)cc1C(=O)NC1CCCC1c1ccc(Cl)cc1Cl` (stereo not drawn) [Example 359] the logP was 2.67^[b]. In the case of `O=C(NC1CCCC1c1ccccc1Cl)c1cccnc1C(F)(F)F` (stereo not drawn) [Example 361], the logP is reported as 3.01^[b]. In the case of `O=C(NC1CCCC1c1c(F)cccc1F)c1cccnc1C(F)(F)F` (stereo not drawn) [Example 362], the logP is reported as 2.86^[b]. With `O=C(NC1CCCC1c1ccc(C(F)(F)F)cc1)c1ccccc1I` (stereo not drawn) [Example 363] the logP was 3.86^[b]. For `O=C(NC1CCCCC1c1ccc(Cl)cc1)c1ccccc1C(F)(F)F` (stereo not drawn) [Example 364], the logP was 3.84^[b]. With `O=C(NC1CCCCC1c1ccc(C(F)(F)F)cc1)c1ccccc1C(F)(F)F` (stereo not drawn) [Example 365] the logP was 4.12^[b]. With `Cc1nc(C)c(C(=O)NC2CCCCC2c2ccc(Cl)cc2)s1` (stereo not drawn) [Example 366] the logP was 3.03^[b]. In the case of `Cc1nn(C)cc1C(=O)NC1CCCCC1c1ccc(Cl)cc1` (stereo not drawn) [Example 367], the logP is reported as 2.49^[b]. With `O=C(NC1CCCCC1c1ccc(Cl)cc1)c1cccnc1C(F)(F)F` (stereo not drawn) [Example 368] the logP was 3.31^[b]. With `O=C(NC1CCCCC1c1ccc(Cl)cc1)c1c(F)cccc1F` (stereo not drawn) [Example 369] the logP was 3.50^[b]. In the case of `O=C(NC1CCCCC1c1ccc(Cl)cc1)c1cccnc1Cl` (stereo not drawn) [Example 370], the logP is reported as 2.99^[b]. With `O=C(NC1CCCCC1c1ccc(Cl)cc1)c1ccccc1Cl` (stereo not drawn) [Example 371] the logP was 3.65^[b]. For `O=C(NC1CCCCC1c1ccc(Cl)cc1)c1ccccc1I` (stereo not drawn) [Example 372], the logP was 3.84^[b]. For `O=C(NC1CCCCC1c1ccccc1C(F)(F)F)c1ccccc1I` (stereo not drawn) [Example 373], the logP was 4.22^[b]. With `O=C(NC1CCCCC1c1ccccc1C(F)(F)F)c1ccccc1C(F)(F)F` (stereo not drawn) [Example 374] the logP was 4.21^[b]. With `O=C(NC1CCCCC1c1ccccc1C(F)(F)F)c1cccnc1C(F)(F)F` (stereo not drawn) [Example 375] the logP was 3.68^[b]. With `Cc1nc(C)c(C(=O)NC2CCCCC2c2ccccc2Cl)s1` (stereo not drawn) [Example 376] the logP was 3.24^[b]. For `Cc1nn(C)cc1C(=O)NC1CCCCC1c1ccccc1Cl` (stereo not drawn) [Example 377], the logP was 2.64^[b]. In the case of `O=C(NC1CCCCC1c1ccccc1Cl)c1cccnc1C(F)(F)F` (stereo not drawn) [Example 378], the logP is reported as 3.45^[b]. In the case of `O=C(NC1CCCCC1c1ccccc1Cl)c1c(F)cccc1F` (stereo not drawn) [Example 379], the logP is reported as 3.67^[b]. With `O=C(NC1CCCCC1c1ccccc1Cl)c1cccnc1Cl` (stereo not drawn) [Example 380] the logP was 3.16^[b]. For `O=C(NC1CCCCC1c1ccccc1Cl)c1ccccc1Cl` (stereo not drawn) [Example 381], the logP was 3.88^[b]. In the case of `O=C(NC1CCCCC1c1ccccc1Cl)c1ccccc1I` (stereo not drawn) [Example 382], the logP is reported as 4.02^[b]. For `O=C(NC1CCCCC1c1ccccc1Cl)c1ccccc1C(F)(F)F` (stereo not drawn) [Example 383], the logP was 4.01^[b]. For `Cc1nn(C)cc1C(=O)NC1CCCCC1c1ccccc1C(F)(F)F` (stereo not drawn) [Example 384], the logP was 2.87^[b]. With `O=C(NC1CCCCC1c1ccccc1C(F)(F)F)c1cccnc1C(F)(F)F` (stereo not drawn) [Example 385] the logP was 3.61^[b]. With `O=C(NC1CCCCC1c1ccccc1C(F)(F)F)c1c(F)cccc1F` (stereo not drawn) [Example 386] the logP was 3.80^[b]. For `O=C(NC1CCCCC1c1ccccc1C(F)(F)F)c1cccnc1Cl` (stereo not drawn) [Example 387], the logP was 3.33^[b]. With `O=C(NC1CCCCC1c1ccccc1C(F)(F)F)c1ccccc1Cl` (stereo not drawn) [Example 388] the logP was 4.02^[b]. In the case of `O=C(NC1CCCCC1c1ccccc1C(F)(F)F)c1ccccc1I` (stereo not drawn) [Example 389], the logP is reported as 4.13^[b]. For `O=C(NC1CCCCC1c1ccccc1C(F)(F)F)c1ccccc1C(F)(F)F` (stereo not drawn) [Example 390], the logP was 4.11^[b]. In the case of `O=C(NC1CCCC1c1ccccc1Cl)c1c(F)cccc1F` (stereo not drawn) [Example 391], the logP is reported as 3.18^[b]. In the case of `Cc1nc(C)c(C(=O)NC2CCCCC2c2ccccc2C(F)(F)F)s1` (stereo not drawn) [Example 392], the logP is reported as 3.49^[b]. In the case of `Cc1nn(C)cc1C(=O)NC1CCCCC1c1c(F)cccc1F` (stereo not drawn) [Example 393], the logP is reported as 2.51^[b]. In the case of `Cc1nc(C)c(C(=O)NC2CCCCC2c2c(F)cccc2F)s1` (stereo not drawn) [Example 394], the logP is reported as 3.16^[b]. For `O=C(NC1CCCCC1c1c(F)cccc1F)c1c(F)cccc1F` (stereo not drawn) [Example 395], the logP was 3.44^[b]. With `O=C(NC1CCCCC1c1c(F)cccc1F)c1ccccc1Cl` (stereo not drawn) [Example 396] the logP was 3.68^[b]. With `O=C(NC1CCCCC1c1c(F)cccc1F)c1cccnc1Cl` (stereo not drawn) [Example 397] the logP was 2.99^[b]. With `O=C(NC1CCCCC1c1c(F)cccc1F)c1cccnc1C(F)(F)F` (stereo not drawn) [Example 398] the logP was 3.26^[b]. For `O=C(NC1CCCCC1c1c(F)cccc1F)c1ccccc1C(F)(F)F` (stereo not drawn) [Example 399], the logP was 3.87^[b]. In the case of `O=C(NC1CCCCC1c1c(F)cccc1F)c1ccccc1I` (stereo not drawn) [Example 400], the logP is reported as 3.84^[b]. In the case of `Cc1nc(C)c(C(=O)NC2CCCCC2c2ccccc2Br)s1` (stereo not drawn) [Example 401], the logP is reported as 3.35^[b]. In the case of `Cc1nn(C)cc1C(=O)NC1CCCCC1c1ccccc1Br` (stereo not drawn) [Example 402], the logP is reported as 2.74^[b]. For `O=C(NC1CCCCC1c1ccccc1Br)c1cccnc1C(F)(F)F` (stereo not drawn) [Example 403], the logP was 3.53^[b]. For `O=C(NC1CCCCC1c1ccccc1Br)c1c(F)cccc1F` (stereo not drawn) [Example 404], the logP was 3.78^[b]. In the case of `O=C(NC1CCCCC1c1ccccc1Br)c1ccccc1Cl` (stereo not drawn) [Example 405], the logP is reported as 3.97^[b]. With `O=C(NC1CCCCC1c1ccccc1Br)c1ccccc1I` (stereo not drawn) [Example 406] the logP was 4.12^[b]. In the case of `O=C(NC1CCCCC1c1ccccc1Br)c1ccccc1C(F)(F)F` (stereo not drawn) [Example 407], the logP is reported as 4.10^[b]. With `O=C(NC1CCCCC1c1ccc(Cl)cc1Cl)c1cccnc1Cl` (stereo not drawn) [Example 408] the logP was 3.76^[b]. With `O=C(NC1CCCCC1c1ccc(Cl)cc1Cl)c1ccccc1Cl` (stereo not drawn) [Example 409] the logP was 4.47^[b]. With `Cc1nc(C)c(C(=O)NC2CCCCC2c2ccc(Cl)cc2Cl)s1` (stereo not drawn) [Example 410] the logP was 3.88^[b]. In the case of `O=C(NC1CCCCC1c1ccc(Cl)cc1Cl)c1c(F)cccc1F` (stereo not drawn) [Example 411], the logP is reported as 4.26^[b]. With `O=C(NC1CCCCC1c1ccc(Cl)cc1Cl)c1ccccc1C(F)(F)F` (stereo not drawn) [Example 412] the logP was 4.49^[b]. For `O=C(NC1CCCCC1c1ccccc1Br)c1cccnc1Cl` (stereo not drawn) [Example 413], the logP was 3.25^[b]. In the case of `O=C(NC1CCCCC1c1ccc(Cl)cc1Cl)c1ccccc1I` (stereo not drawn) [Example 415], the logP is reported as 4.57^[b]. In the case of `Cc1nn(C)cc1C(=O)NC1CCCCC1c1ccc(Cl)cc1Cl` (stereo not drawn) [Example 416], the logP is reported as 3.19^[b]. In the case of `O=C(NC1CCCCCC1c1ccccc1C(F)(F)F)c1cccnc1C(F)(F)F` (stereo not drawn) [Example 418], the logP is reported as 3.94^[b]. With `O=C(NC1CCCCCC1c1ccccc1C(F)(F)F)c1ccccc1I` (stereo not drawn) [Example 419] the logP was 4.59^[b]. With `O=C(NC1CCCCCC1c1ccccc1C(F)(F)F)c1ccccc1C(F)(F)F` (stereo not drawn) [Example 420] the logP was 4.55^[b]. For `Cn1cc(C(=O)NC2CCCCCC2c2ccccc2C(F)(F)F)c(C(F)F)n1` (stereo not drawn) [Example 421], the logP was 3.69^[b]. With `O=C(NC1CC1c1ccc(Cl)cc1)c1ccccc1F` (stereo not drawn) [Example 422] the logP was 3.12^[b]. For `O=C(NC1CC1c1ccc(Cl)cc1)c1ccccc1Br` (stereo not drawn) [Example 423], the logP was 3.13^[b]. For `O=C(NC1CCC1c1ccccc1C(F)(F)F)c1ccccc1I` (stereo not drawn) [Example 428], the logP was 3.42^[b]. With `O=C(NC1CCC1c1ccccc1C(F)(F)F)c1ccc(Cl)cc1` (stereo not drawn) [Example 429] the logP was 3.56^[b]. For `O=C(NC1CCC1c1ccccc1C(F)(F)F)c1ccccc1Cl` (stereo not drawn) [Example 433], the logP was 3.01^[b]. In the case of `O=C(NC1CCC1c1ccccc1C(F)(F)F)c1cccc(Cl)c1` (stereo not drawn) [Example 436], the logP is reported as 3.59^[b]. In the case of `O=C(NC1CCC1c1ccccc1C(F)(F)F)c1ncc(C(F)(F)F)cc1Cl` (stereo not drawn) [Example 437], the logP is reported as 3.88^[b]. For `O=C(NC1CCC1c1c(F)cccc1F)c1c(F)cccc1F` (stereo not drawn) [Example 439], the logP was 2.83^[b]. In the case of `O=C(NC1CCC1c1c(F)cccc1F)c1ccc(Cl)cc1Cl` (stereo not drawn) [Example 441], the logP is reported as 3.49^[b]. With `O=C(NC1CCC1c1c(F)cccc1F)c1cccc(Cl)c1` (stereo not drawn) [Example 442] the logP was 3.26^[b]. For `O=C(NC1CCC1c1c(F)cccc1F)c1ccc(Cl)cc1` (stereo not drawn) [Example 444], the logP was 3.20^[b]. For `O=C(NC1CCC1c1ccccc1Cl)c1cccc(Cl)c1` (stereo not drawn) [Example 445], the logP was 3.75^[b]. In the case of `O=C(NC1CCC1c1ccccc1Cl)c1ccc(Cl)cc1` (stereo not drawn) [Example 446], the logP is reported as 3.70^[b].

Same assay, conditions: HPLC reversed phase, method [c] pH 7.8
With `O=C(NC1CCCC1c1ccc(C(F)(F)F)cc1)c1ccccc1I` (stereo not drawn) [Example 363] the logP was 3.79^[c];. With `O=C(NC1CCCCC1c1ccc(C(F)(F)F)cc1)c1ccccc1C(F)(F)F` (stereo not drawn) [Example 365] the logP was 4.05^[c];. For `O=C(NC1CC1c1ccc(Cl)cc1)c1ccccc1F` (stereo not drawn) [Example 422], the logP was 3.07^[c];. For `O=C(NC1CC1c1ccc(Cl)cc1)c1ccccc1Br` (stereo not drawn) [Example 423], the logP was 3.07^[c];.
